Measured values reported in patent US10870647B2, “Imidazopyridine derivative, method for preparing same, and pharmaceutical composition containing same as active ingredient for preventing or treating cancer” (DAEGU-GYEONGBUK MEDICAL INNOVATION FOUNDATION, priority 2016, dated 2020).

Columns and labels:
Assay in all cases: Kinase selectivity, scanMAX Kinase assay panel (DiscoverX), % control at 1 uM
Assay type in all cases: binding
[1] = target: T1, scanMAX Kinase assay panel (Homo sapiens, UniProt P53355); settings: DAPK1; 1 uM; read-out: Percent Control (%)
T1 construct: purchased DiscoverX
Method in brief: (§1)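 Single-point screen at 1 uM compound in DMSO. Lower % control means stronger inhibition, with the cutoff for activity set at <35%.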

[2] = target: T2, scanMAX Kinase assay panel (Homo sapiens, UniProt Q9H422); settings: HIPK3; 1 uM; read-out: Percent Control (%)
T2 construct: purchased DiscoverX
T2 sequence (Q9H422 whole entry): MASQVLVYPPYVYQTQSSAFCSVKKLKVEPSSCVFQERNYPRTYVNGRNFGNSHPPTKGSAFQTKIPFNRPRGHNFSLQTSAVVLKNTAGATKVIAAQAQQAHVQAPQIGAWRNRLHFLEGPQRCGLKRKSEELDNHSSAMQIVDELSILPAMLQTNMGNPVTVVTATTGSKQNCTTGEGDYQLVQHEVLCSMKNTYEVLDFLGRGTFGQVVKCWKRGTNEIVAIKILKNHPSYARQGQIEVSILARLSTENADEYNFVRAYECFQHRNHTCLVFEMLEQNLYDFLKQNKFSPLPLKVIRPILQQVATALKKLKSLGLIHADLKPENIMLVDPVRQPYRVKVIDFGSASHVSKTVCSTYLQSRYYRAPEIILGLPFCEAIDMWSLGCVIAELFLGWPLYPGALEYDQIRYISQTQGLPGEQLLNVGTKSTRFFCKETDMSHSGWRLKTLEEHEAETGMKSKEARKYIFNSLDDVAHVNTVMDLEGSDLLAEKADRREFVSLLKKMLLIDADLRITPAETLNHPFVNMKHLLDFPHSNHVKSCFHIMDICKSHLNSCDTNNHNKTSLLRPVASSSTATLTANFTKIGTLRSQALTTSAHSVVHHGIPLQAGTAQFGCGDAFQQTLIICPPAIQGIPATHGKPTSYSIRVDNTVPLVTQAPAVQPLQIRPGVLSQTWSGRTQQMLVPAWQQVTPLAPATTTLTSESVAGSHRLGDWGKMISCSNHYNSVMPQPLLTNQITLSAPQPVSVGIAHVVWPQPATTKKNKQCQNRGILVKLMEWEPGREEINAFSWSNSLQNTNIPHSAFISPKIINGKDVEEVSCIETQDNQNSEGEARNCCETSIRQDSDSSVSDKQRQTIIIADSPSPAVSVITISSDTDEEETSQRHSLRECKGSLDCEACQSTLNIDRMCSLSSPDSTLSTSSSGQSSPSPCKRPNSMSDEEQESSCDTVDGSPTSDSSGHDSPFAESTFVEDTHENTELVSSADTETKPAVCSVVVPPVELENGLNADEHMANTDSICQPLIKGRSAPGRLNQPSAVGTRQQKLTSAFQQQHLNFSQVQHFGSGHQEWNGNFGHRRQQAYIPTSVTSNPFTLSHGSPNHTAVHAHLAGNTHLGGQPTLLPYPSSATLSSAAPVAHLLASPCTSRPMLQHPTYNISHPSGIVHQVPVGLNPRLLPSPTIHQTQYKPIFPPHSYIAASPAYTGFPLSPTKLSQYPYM
Method in brief: as §1

[3] = target: T3, scanMAX Kinase assay panel (Homo sapiens, UniProt Q56UN5); settings: YSK4; 1 uM; read-out: Percent Control (%)
T3 construct: purchased DiscoverX
T3 sequence (Q56UN5 1-1328): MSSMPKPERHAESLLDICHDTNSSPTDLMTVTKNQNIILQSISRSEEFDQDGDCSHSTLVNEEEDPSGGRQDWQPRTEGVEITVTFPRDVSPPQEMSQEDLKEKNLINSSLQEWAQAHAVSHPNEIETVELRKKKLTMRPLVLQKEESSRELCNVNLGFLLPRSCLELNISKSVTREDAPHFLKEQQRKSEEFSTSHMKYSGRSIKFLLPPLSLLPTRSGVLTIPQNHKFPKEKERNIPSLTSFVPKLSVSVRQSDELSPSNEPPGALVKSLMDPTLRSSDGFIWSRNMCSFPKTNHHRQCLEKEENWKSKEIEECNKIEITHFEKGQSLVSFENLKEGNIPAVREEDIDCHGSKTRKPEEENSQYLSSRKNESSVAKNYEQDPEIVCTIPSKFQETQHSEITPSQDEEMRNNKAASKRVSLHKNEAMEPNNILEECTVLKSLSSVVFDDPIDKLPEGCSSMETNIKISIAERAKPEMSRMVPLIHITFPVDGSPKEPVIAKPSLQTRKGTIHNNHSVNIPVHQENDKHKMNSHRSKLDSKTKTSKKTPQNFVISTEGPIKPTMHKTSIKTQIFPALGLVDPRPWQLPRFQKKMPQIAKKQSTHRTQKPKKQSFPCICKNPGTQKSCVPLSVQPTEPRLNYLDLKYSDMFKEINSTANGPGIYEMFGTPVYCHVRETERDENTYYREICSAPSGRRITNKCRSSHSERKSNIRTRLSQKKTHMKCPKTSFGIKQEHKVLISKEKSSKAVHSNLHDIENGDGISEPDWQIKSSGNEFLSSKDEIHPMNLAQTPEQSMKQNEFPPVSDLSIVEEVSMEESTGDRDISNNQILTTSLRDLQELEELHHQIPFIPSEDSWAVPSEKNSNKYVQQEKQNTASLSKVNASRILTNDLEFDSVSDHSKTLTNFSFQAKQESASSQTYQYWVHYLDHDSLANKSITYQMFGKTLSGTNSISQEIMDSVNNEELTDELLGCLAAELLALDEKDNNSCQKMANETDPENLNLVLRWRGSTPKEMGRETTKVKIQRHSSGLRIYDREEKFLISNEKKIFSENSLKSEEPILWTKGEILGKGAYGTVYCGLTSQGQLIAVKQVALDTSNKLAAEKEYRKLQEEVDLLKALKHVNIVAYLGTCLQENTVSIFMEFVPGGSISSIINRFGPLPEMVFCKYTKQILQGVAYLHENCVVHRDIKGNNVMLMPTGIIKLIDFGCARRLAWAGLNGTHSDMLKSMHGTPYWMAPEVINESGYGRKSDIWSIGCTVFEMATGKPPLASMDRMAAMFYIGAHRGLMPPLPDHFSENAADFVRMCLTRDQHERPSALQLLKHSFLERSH
Method in brief: as §1

[4] = target: T4, scanMAX Kinase assay panel (Homo sapiens, UniProt P49674); settings: CSNK1E; 1 uM; read-out: Percent Control (%)
T4 construct: purchased DiscoverX
Method in brief: as §1

[5] = target: T5, scanMAX Kinase assay panel (Homo sapiens, UniProt P07949, V804M); settings: RET (V804M); 1 uM; read-out: Percent Control (%)
T5 construct: purchased DiscoverX
T5 sequence (P07949 29-1114 V804M): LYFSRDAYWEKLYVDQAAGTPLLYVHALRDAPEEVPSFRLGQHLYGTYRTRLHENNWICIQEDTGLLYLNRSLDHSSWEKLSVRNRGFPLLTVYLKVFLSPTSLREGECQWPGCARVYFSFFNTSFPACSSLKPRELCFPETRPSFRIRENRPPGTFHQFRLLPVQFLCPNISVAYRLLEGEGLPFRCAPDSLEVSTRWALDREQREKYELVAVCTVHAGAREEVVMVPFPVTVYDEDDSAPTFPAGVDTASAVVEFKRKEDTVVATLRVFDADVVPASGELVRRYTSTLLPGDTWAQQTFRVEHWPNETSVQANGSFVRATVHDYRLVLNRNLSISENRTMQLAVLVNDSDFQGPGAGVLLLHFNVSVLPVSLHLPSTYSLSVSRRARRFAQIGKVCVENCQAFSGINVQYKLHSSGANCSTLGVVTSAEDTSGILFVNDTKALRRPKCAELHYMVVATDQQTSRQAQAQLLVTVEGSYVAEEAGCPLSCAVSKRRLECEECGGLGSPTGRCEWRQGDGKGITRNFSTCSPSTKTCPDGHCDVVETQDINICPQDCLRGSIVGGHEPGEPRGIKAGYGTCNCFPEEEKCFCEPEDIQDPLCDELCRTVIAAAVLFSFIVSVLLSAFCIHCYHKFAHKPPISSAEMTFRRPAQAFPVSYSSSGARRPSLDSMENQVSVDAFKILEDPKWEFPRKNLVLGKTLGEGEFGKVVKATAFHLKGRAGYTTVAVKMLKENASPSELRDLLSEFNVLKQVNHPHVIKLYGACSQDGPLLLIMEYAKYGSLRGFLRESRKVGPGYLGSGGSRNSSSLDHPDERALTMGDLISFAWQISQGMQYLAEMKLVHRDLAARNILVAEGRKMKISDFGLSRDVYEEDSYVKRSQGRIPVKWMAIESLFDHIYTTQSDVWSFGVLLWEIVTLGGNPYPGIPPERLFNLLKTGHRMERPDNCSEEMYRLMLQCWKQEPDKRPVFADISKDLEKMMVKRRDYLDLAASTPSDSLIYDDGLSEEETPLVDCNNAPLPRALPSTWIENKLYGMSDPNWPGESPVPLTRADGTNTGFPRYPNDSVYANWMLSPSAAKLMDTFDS
Method in brief: as §1

[6] = target: T6, scanMAX Kinase assay panel (Homo sapiens, UniProt Q14012); settings: CAMK1; 1 uM; read-out: Percent Control (%)
T6 construct: purchased DiscoverX
T6 sequence (Q14012 whole entry): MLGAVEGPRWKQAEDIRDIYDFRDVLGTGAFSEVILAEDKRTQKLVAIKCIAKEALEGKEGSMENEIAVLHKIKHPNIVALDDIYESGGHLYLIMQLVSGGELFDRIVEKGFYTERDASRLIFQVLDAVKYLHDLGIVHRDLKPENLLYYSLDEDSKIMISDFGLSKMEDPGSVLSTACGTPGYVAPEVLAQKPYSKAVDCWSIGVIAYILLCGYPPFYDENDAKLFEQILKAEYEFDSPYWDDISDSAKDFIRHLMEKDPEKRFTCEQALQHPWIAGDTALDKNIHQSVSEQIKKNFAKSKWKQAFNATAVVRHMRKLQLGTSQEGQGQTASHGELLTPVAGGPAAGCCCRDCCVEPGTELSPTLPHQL
Method in brief: as §1

[7] = target: T7, scanMAX Kinase assay panel (Homo sapiens, UniProt P22694); settings: PKAC-beta; 1 uM; read-out: Percent Control (%)
T7 construct: purchased DiscoverX
Method in brief: as §1

[8] = target: T8, scanMAX Kinase assay panel (Homo sapiens, UniProt Q9BYP7); settings: WNK3; 1 uM; read-out: Percent Control (%)
T8 construct: purchased DiscoverX
T8 sequence (Q9BYP7 whole entry): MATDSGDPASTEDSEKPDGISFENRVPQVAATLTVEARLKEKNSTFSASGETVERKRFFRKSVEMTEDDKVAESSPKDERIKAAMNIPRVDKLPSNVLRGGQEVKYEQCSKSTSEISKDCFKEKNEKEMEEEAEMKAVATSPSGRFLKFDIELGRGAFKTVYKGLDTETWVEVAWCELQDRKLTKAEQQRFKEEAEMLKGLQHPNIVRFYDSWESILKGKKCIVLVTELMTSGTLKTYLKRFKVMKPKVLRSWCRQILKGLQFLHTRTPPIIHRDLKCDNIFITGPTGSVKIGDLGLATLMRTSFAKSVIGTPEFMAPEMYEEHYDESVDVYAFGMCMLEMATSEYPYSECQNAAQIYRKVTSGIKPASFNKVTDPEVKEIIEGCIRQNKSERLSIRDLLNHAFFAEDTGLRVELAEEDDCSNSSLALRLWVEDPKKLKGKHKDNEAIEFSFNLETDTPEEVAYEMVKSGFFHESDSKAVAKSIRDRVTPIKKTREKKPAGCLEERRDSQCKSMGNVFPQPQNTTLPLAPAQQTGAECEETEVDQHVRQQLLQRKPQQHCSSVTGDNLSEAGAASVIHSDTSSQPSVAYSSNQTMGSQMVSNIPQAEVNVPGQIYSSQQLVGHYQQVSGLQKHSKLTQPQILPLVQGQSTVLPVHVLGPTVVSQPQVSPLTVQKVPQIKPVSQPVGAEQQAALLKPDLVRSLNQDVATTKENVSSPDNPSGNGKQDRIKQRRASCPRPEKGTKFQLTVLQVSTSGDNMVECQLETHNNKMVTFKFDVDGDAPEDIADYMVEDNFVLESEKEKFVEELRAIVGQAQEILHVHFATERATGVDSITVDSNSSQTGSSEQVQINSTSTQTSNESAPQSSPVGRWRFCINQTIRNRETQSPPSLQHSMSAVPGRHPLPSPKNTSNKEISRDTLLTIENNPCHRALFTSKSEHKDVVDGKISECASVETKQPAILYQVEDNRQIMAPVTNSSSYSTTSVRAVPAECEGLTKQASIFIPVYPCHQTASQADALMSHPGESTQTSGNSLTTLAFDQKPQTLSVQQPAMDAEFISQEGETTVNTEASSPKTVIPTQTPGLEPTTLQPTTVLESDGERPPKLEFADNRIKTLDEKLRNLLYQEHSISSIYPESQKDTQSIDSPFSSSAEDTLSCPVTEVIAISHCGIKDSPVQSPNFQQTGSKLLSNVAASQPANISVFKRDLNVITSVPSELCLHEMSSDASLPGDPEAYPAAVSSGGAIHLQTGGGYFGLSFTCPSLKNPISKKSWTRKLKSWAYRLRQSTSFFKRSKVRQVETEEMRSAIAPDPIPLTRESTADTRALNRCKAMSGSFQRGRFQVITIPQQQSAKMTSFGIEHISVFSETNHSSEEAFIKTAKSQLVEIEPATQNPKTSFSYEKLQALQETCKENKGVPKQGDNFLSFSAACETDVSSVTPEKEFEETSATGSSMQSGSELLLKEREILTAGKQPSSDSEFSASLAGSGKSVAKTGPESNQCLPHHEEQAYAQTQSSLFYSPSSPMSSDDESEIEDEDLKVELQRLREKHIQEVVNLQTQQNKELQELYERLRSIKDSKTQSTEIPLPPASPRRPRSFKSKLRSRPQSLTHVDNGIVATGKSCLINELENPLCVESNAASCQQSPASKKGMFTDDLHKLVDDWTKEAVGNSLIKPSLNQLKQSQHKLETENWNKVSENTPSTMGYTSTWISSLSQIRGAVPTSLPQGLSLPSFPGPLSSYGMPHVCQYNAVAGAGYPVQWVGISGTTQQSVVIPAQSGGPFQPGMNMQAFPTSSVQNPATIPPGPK
Method in brief: as §1

[9] = target: T9, scanMAX Kinase assay panel (Homo sapiens, UniProt P07949); settings: RET; 1 uM; read-out: Percent Control (%)
T9 construct: purchased DiscoverX
T9 sequence (P07949 29-1114): as the sequence (P07949 29-1114 V804M) above, with M776V counted along it
Method in brief: as §1

[10] = target: T10, scanMAX Kinase assay panel (Homo sapiens, UniProt Q96RR4); settings: CAMKK2; 1 uM; read-out: Percent Control (%)
T10 construct: purchased DiscoverX
Method in brief: as §1

[11] = target: T11, scanMAX Kinase assay panel (Homo sapiens, UniProt P35968); settings: VEGFR2; 1 uM; read-out: Percent Control (%)
T11 construct: purchased DiscoverX
Method in brief: as §1

[12] = target: T12, scanMAX Kinase assay panel (Homo sapiens, UniProt Q9HC98); settings: NEK6; 1 uM; read-out: Percent Control (%)
T12 construct: purchased DiscoverX
Method in brief: as §1

[13] = target: T13, scanMAX Kinase assay panel (Homo sapiens, UniProt Q9NQU5); settings: PAK6; 1 uM; read-out: Percent Control (%)
T13 construct: purchased DiscoverX
Method in brief: as §1

[14] = target: T14, scanMAX Kinase assay panel (Homo sapiens, UniProt P19525); settings: PRKR; 1 uM; read-out: Percent Control (%)
T14 construct: purchased DiscoverX
T14 sequence (P19525 whole entry): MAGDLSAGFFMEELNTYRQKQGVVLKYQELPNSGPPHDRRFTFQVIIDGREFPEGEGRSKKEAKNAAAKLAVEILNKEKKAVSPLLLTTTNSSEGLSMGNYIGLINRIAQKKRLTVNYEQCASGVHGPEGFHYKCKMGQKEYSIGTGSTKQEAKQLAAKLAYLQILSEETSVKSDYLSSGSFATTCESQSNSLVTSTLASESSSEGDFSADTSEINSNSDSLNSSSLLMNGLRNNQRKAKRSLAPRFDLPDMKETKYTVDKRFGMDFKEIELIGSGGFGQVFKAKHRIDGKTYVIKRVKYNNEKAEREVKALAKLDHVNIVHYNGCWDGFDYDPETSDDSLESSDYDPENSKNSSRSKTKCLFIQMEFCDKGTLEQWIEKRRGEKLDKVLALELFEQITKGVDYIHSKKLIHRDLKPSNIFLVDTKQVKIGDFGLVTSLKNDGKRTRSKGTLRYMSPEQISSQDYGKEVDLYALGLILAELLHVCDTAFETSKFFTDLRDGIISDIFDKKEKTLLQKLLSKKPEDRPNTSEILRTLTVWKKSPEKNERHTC
Method in brief: as §1

[15] = target: T15, scanMAX Kinase assay panel (Homo sapiens, UniProt P00533, T790M); settings: EGFR (T790M); 1 uM; read-out: Percent Control (%)
T15 construct: purchased DiscoverX
Method in brief: as §1

Cc1ccc(C(=O)Nc2ccc(CN3CCN(C)CC3)c(C(F)(F)F)c2)cc1C#Cc1cnc2c(Nc3cnn(C)c3)cccn12 [Example 1, 4-methyl-3-((8-((1-methyl-1H-pyrazol-4-yl)amino)imidazo[1,2-a]pyridin-3-yl)ethynyl)-N-(4-((4-methylpiperazin-1-yl)methyl)-3-(trifluoromethyl)phenyl)benzamide]
remaining binding at 1 µM [1]: 87% | remaining binding at 1 µM [2]: 54% | remaining binding at 1 µM [3]: 2% | remaining binding at 1 µM [4]: 90% | remaining binding at 1 µM [5]: 0% | remaining binding at 1 µM [6]: 35% | remaining binding at 1 µM [7]: 34% | remaining binding at 1 µM [8]: 85% | remaining binding at 1 µM [9]: 0% | remaining binding at 1 µM [10]: 32% | remaining binding at 1 µM [11]: 5% | remaining binding at 1 µM [12]: 65% | remaining binding at 1 µM [13]: 66% | remaining binding at 1 µM [14]: 80% | remaining binding at 1 µM [15]: 10%

Cc1cn(-c2cc(NC(=O)c3ccc(C)c(C#Cc4cnc5c(Nc6cnn(C)c6)cccn45)c3)cc(C(F)(F)F)c2)cn1 [Example 12, 4-methyl-N-(3-(4-methyl-1H-imidazol-1-yl)-5-(trifluoromethyl)phenyl)-3-((8-((1-methyl-1H-pyrazol-4-yl)amino)imidazo[1,2-a]pyridin-3-yl)ethynyl)benzamide]
remaining binding at 1 µM [1]: 80% | remaining binding at 1 µM [2]: 84% | remaining binding at 1 µM [3]: 2% | remaining binding at 1 µM [4]: 99% | remaining binding at 1 µM [5]: 1% | remaining binding at 1 µM [6]: 73% | remaining binding at 1 µM [7]: 87% | remaining binding at 1 µM [8]: 100% | remaining binding at 1 µM [9]: 1% | remaining binding at 1 µM [10]: 77% | remaining binding at 1 µM [11]: 55% | remaining binding at 1 µM [12]: 88% | remaining binding at 1 µM [13]: 84% | remaining binding at 1 µM [14]: 89% | remaining binding at 1 µM [15]: 75%

Cc1ccc(NC(=O)C2(C(=O)Nc3ccc(F)cc3)CC2)cc1C#Cc1cnc2c(Nc3cnn(C(C)C)c3)cccn12 [Example 78]
remaining binding at 1 µM [1]: 98% | remaining binding at 1 µM [2]: 100% | remaining binding at 1 µM [3]: 71% | remaining binding at 1 µM [4]: 94% | remaining binding at 1 µM [5]: 100% | remaining binding at 1 µM [6]: 100% | remaining binding at 1 µM [7]: 98% | remaining binding at 1 µM [8]: 100% | remaining binding at 1 µM [9]: 97% | remaining binding at 1 µM [10]: 100% | remaining binding at 1 µM [11]: 63% | remaining binding at 1 µM [12]: 100% | remaining binding at 1 µM [13]: 97% | remaining binding at 1 µM [14]: 100% | remaining binding at 1 µM [15]: 100%
